Counter-ions that a name gives are not always drawn.
Target: T1, SPHK-1 (Homo sapiens, UniProt Q9NYA1)
T1 construct: purchased BPS Bioscience
Assay: Reporter Assay: sphingosine kinase conversion of fluorescein-labeled sphingosine, read on Lab Chip 3000
Assay type: biochemical
Details: 2 μM Fl-sphingosine, 25 μM ATP, 300 ng/ml SK1, 1 hour at room temperature; from percent conversion of substrate to product; read-out: SPHK-1 IC50 (n =)
Procedure: Sphingosine kinase is a 49 kDa enzyme that catalyzes the formation of sphingosine-1-phosphate (S-1-P) from sphingosine.
Fluorescein labeled sphingosine was obtained from Echelon Biosciences (S-100F). Buffer reagents (1 M Hepes, 10 triton x-100, 100% glycerol, dithiothreitol 1 M MgCl2, ATP, 500 mM EDTA and DMSO) were purchased from Sigma. Coating reagent (CR-3), was obtained from Caliper Life Sciences.
0.05% Triton X-100, 2.5% glycerol, 0.1% CR-3, and 0,6% DMSO. Termination butler included 100 mM Hepes (pH 7.5), 40 mM EDTA, 0.05% Triton X-100, 2.5% glycerol, 0.3% CR-3, and 0.6% DMSO.
All assay components were made in reaction buffer. […] The assaylvas allowed to incubate at room temperature sealed and protected from light for 1 hour.
After 1 hour, 10 μl of termination buffer was added to terminate, the reaction, and the plate was read on a Lab Chip 3000. The plate was read for one cycle. The Lab Chip separated substrate and product based on charge.
Results were calculated based on percent conversion of substrate to product using the following formula: […]
Percent inhibition and IC50's for compounds of the invention were determined using the percent conversion values obtained horn the Lab Chip.

T1 sequence (Q9NYA1 whole entry): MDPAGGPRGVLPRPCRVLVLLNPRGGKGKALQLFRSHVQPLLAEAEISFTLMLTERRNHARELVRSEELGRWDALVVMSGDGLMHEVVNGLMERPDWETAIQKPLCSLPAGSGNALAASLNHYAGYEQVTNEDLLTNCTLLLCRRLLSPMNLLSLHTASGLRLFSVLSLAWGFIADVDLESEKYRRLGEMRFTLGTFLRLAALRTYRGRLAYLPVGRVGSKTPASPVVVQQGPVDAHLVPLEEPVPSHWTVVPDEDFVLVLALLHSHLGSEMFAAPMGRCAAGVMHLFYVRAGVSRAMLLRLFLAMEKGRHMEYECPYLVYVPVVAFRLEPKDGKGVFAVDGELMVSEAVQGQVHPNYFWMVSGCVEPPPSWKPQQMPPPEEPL

Row | Compound | IC50
1 | CCCCCCCCc1ccc(NC(=O)[C@H]([C@H](C)O)N(Cc2ccccc2)Cc2ccccc2)cc1 [Example 49, (2S,3S)-2-(dibenzyl-amino)-3-hydroxy-N-(4-octylphenyl) butanamide] | > 1000 nM
2 | O=C(Nc1ccc(CCCC2CCCCC2)cc1)[C@H]1NCC[C@@H]1O [Example 50, (2S,3S)-N-(4-(3-cyclohexyl-propyl)phenyl)-3-hydroxy-pyrrolidine-2-carboxamide] | 950 nM
3 | CCCCCCCCc1ccc(NC(=O)[C@H](CO)NC)cc1 [Example 51, (S)-3-Hydroxy-2-(methylamino)-N-(4-octylphenyl) propanamide] | 2800 nM
4 | CCCCCCCCc1ccc(NC(=O)[C@@H](N)CCCCO)cc1 [Example 52, (S)-2-Amino-6-hydroxy-N-(4-octylphenyl) hexanamide] | 4000 nM
5 | CCCCCCCCc1ccc(O)c(NC(=O)[C@H]2NCC[C@@H]2O)c1 [Example 58, hydrochloride] | 3600 nM
6 | CCCCCCCCc1ccc(-c2ccc(NC(=O)[C@@H](N)[C@@H](C)O)cc2)cc1 [Example 59, (2S,3R)-2-Amino-3-hydroxy-N-(4′-octylbiphenyl-4-yl)butanamide] | 1100 nM
7 | CCCCCCCCc1ccc(-c2ccc(NC[C@@H](N)[C@@H](C)O)cc2)cc1 [Example 60, (2R,3R)-3-Amino-4-(4′-octylbiphenyl-4-ylamino)butan-2-ol] | 2300 nM
8 | CCCCCCCc1nc(-c2ccc3c(c2)CC[C@H]3NC(=O)[C@H]2NCC[C@@H]2O)no1 [Example 61] | 6900 nM
9 | CCCCCCCc1nc(-c2ccc3c(c2)CC[C@@H]3NC(=O)[C@H]2NCC[C@@H]2O)no1 [Example 62, (2S,3S)—N—((S)-5-(5-heptyl-1,2,3-oxadiazol-3-yl)-2,3-dihydro-1H-inden-1-yl)-3-hydroxypyrrolidine-2-carboxamide] | 60 nM
10 | Cn1nc(-c2ccc(CNC(=O)[C@H]3NCC[C@@H]3O)cc2)nc1C1CCCCC1 [Example 63, (2S,3S)—N-(4-(5-Cyclohexyl-1-methyl-1H-1,2,4-triazol-3-yl)benzyl)-3-hydroxypyrrolidine-2-carboxamide] | 2100 nM
11 | O=C(NCc1ccc(-n2cc(CCc3ccccc3)nn2)cc1)[C@H]1NCC[C@@H]1O [Example 65, (2S,3S)-3-Hydroxy-N-(4-(4-phenethyl-1H-1,2,3-triazol-1-yl)benzyl)pyrrolidine-2-carboxamide] | 1600 nM
12 | CC[C@H](NC(=O)[C@H]1NCC[C@@H]1O)c1ccc(-n2cc(CCc3ccccc3)nn2)cc1 [Example 66, (2S,3S)-3-Hydroxy-N—((S)-1-(4-(4-phenethyl-1H-1,2,3-triazol-1-yl)phenyl)propyl)pyrrolidine-2-carboxamide] | 140 nM
13 | O=C(NCc1ccc(-n2cc(CCC3CCCCC3)nn2)cc1)[C@H]1NCC[C@@H]1O [Example 67, (2S,3S)-(4-(4-(2-Cyclohexylethyl)-1H-1,2,3-triazol-1-yl)benzyl)-3-hydroxypyrrolidine-2-carboxamide] | 290 nM
14 | O=C(NCc1ccc(-n2cc(CCc3ccc(F)cc3)nn2)cc1)[C@H]1NCC[C@@H]1O [Example 68, (2S,3S)—N-(4-(4-(4-Fluorophenethyl)-1H-1,2,3-triazol-1-yl)benzyl)-3-hydroxypyrrolidine-2-carboxamide] | 7300 nM
15 | O=C(NCc1ccc(-n2cc(CCc3ccccc3)cn2)cc1)[C@H]1NCC[C@@H]1O [Example 69, (2S,3S)-3-Hydroxy-N-(4-(4-phenethyl-1H-pyrazol-1-yl)benzyl)pyrrolidine-2-carboxamide] | 65 nM
16 | CCCCCCCc1ccc(-c2noc(CNC(=O)[C@H]3NCC[C@@H]3O)n2)cc1 [Example 77, (2S,3S)—N-((3-(4-Heptylphenyl)-1,2,4-oxadiazol-5-yl)methyl)-3-hydroxypyrrolidine-2-carboxamide] | 220 nM
17 | CC(C)Cc1ccc(-c2nc(-c3ccc(CNC(=O)[C@H]4NCC[C@@H]4O)cc3)no2)cc1 [Example 78, (2S,3S)-3-Hydroxy-N-(4-(5-(4-isobutylphenyl)-1,2,4-oxadiazol-3-yl)benzyl)pyrrolidine-2-carboxamide] | 4400 nM
18 | CCCc1ccc(-c2nc(-c3ccc(CNC(=O)[C@H]4NCC[C@@H]4O)cc3)no2)cc1 [Example 81, (2S,3S)-3-Hydroxy-N-(4-(5-(4-propylphenyl)-1,2,4-oxadiazol-3-yl)benzyl)pyrrolidine-2-carboxamide] | 1800 nM
19 | CCCCc1ccc(-c2nc(-c3ccc(CNC(=O)[C@H]4NCC[C@@H]4O)cc3)no2)cc1 [Example 82, (2S,3S)—N-(4-(5-(4-Butylphenyl)-1,2,4-oxadiazol-3-yl)benzyl)-3-hydroxypyrrolidine-2-carboxamide] | 3700 nM
20 | CCCCCCCc1nc(-c2ccc(CNC(=O)[C@@H](N)CCO)cc2)no1 [Example 83, (S)-2-Amino-N-(4-(5-heptyl-1,2,4-oxadiazol-3-yl)benzyl)-4-hydroxybutanamide] | 600 nM
21 | O=C(NCc1ccc(-c2noc(C3CCC(F)(F)CC3)n2)cc1)[C@H]1NCC[C@@H]1O [Example 92, (2S,3S)—N-(4-(5-(4,4-Difluorocyclohexyl)-1,2,4-oxadiazol-3-yl)benzyl)-3-hydroxypyrrolidine-2-carboxamide] | 6400 nM
22 | CC[C@H](NC(=O)[C@H]1NCC[C@@H]1O)c1ccc(-c2noc(C3CCCCC3)n2)cc1 [Example 99, (2S,3S)—N—((S)-1-(4-(5-Cyclohexyl-1,2,4-oxadiazol-3-yl)phenyl)propyl)-3-hydroxypyrrolidine-2-carboxamide hemi-tartrate salt] | 130 nM
23 | C[C@H](NC(=O)[C@H]1NCC[C@@H]1O)c1ccc(-c2noc(CCC3CCC3)n2)cc1 [Example 100, (2S,3S)—N—((S)-1-(4-(5-(2-Cyclobutylethyl)-1,2,4-oxadiazol-3-yl)phenyl)ethyl)-3-hydroxypyrrolidine-2-carboxamide hemi tartrate salt] | 59 nM
24 | CCCCCCCc1ccc(-c2ccc(NC(=O)[C@@H](N)[C@@H](C)O)cc2)nc1 [Example 101, (2S,3R)-2-amino-N-(4-(5-heptylpyridin-2-yl)phenyl)-3-hydroxybutanamide] | 900 nM
25 | CCCCCCCc1noc(-c2ccc(CNC(=O)[C@@H]3C[C@@H](O)CCN3)cc2)n1 [Example 102, (2S,4S)—N-(4-(3-heptyl-1,2,4-oxadiazol-5-yl)benzyl)-4-hydroxypiperidine-2-carboxamide] | 2700 nM
26 | CCCCCCCCc1nc(-c2ccc(CNC(=O)[C@H]3NCC[C@@H]3O)cc2)cs1 [Example 103, (2S,3S)-3-hydroxy-N-(4-(2-octylthiazol-4-yl)benzyl)pyrrolidine-2-carboxamide] | 49 nM
27 | CCCCCCCc1ccc(-c2ccc(NC(=O)[C@H]3NCC[C@@H]3O)cc2)nc1 [Example 104, (2S,3S)—N-(4-(5-heptylpyridin-2-yl)phenyl)-3-hydroxypyrrolidine-2-carboxamide] | 1600 nM
28 | CCCCCCCCc1cnc(-c2ccc(CNC(=O)[C@H]3NCC[C@@H]3O)cc2)s1 [Example 106, (2S,3S)-3-hydroxy-N-(4-(5-octylthiazol-2-yl)benzyl)pyrrolidine-2-carboxamide] | 70 nM
29 | CCCCCCCCc1cc2cc(CNC(=O)[C@H]3NCC[C@@H]3O)ccc2o1 [Example 107, (2S,3S)-3-Hydroxy-N-((2-octylbenzofuran-5-yl)methyl)pyrrolidine-2-carboxamide] | 31 nM
